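Each compound was tested at five concentrations against cells in 96-well plates for 48 hours. Abbreviation: GI50, concentration required for 50% inhibition of growth.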 Active and inactive are the calls of the source. Cut-off read from the data, not from the text of the source: active = GI50 up to about 1.1 µM and inactive = higher.
Assays:
Assay in all cases: NCI-60 cell line screen, 48 h
[1] = test system: NCI-H460
[2] = test system: MDA-MB-435
[3] = test system: 786-0
[4] = test system: SK-MEL-2
[5] = test system: TK-10
[6] = test system: HCT-116
[7] = test system: SW-620
[8] = test system: CAKI-1
[9] = test system: RXF 393
[10] = test system: PC-3
[11] = test system: Malme-3M
[12] = test system: Hs-578T
[13] = test system: SF-539
[14] = test system: SF-268
[15] = test system: OVCAR-8
[16] = test system: IGROV-1
[17] = test system: HCT-15
[18] = test system: BT-549
[19] = test system: NCI-H226
[20] = test system: T47D

| Structure (SMILES) | GI50 [1] | GI50 [2] | GI50 [3] | GI50 [4] | GI50 [5] | GI50 [6] | GI50 [7] | GI50 [8] | GI50 [9] | GI50 [10] | GI50 [11] | GI50 [12] | GI50 [13] | GI50 [14] | GI50 [15] | GI50 [16] | GI50 [17] [µM] | GI50 [18] | GI50 [19] | GI50 [20] |
| --- | --- | --- | --- | --- | --- | --- | --- | --- | --- | --- | --- | --- | --- | --- | --- | --- | --- | --- | --- | --- |
| Cc1ccc(-c2c(C#N)c(-c3ccc(C)cc3)n(NS(=O)(=O)c3ccccc3)c(=O)c2C#N)cc1 | 40.9 µM (inactive) | 61.1 µM (inactive) | 54.1 µM (inactive) | 57.4 µM (inactive) | 76.2 µM (inactive) | 31.1 µM (inactive) | 42.4 µM (inactive) | 83.8 µM (inactive) | 35.3 µM (inactive) | 28.9 µM (inactive) | 86.5 µM (inactive) | > 100 µM (inactive) | 21.2 µM (inactive) | > 100 µM (inactive) | 69.2 µM (inactive) | 44.5 µM (inactive) | 39.4 | 25.4 µM (inactive) | > 100 µM (inactive) | – |
| CCc1ccc2oc(=O)ccc2c1 | > 100 µM (inactive) | > 100 µM (inactive) | > 100 µM (inactive) | > 100 µM (inactive) | – | > 100 µM (inactive) | > 100 µM (inactive) | > 100 µM (inactive) | > 100 µM (inactive) | > 100 µM (inactive) | > 100 µM (inactive) | > 100 µM (inactive) | > 100 µM (inactive) | > 100 µM (inactive) | > 100 µM (inactive) | > 100 µM (inactive) | > 100 | > 100 µM (inactive) | > 100 µM (inactive) | – |
| CC(C)=C1CCC(CN2CCOCC2)C1=O (stereo unspecified) | 27.2 µM (inactive) | 15.3 µM (inactive) | 3.79 µM (inactive) | 19 µM (inactive) | 6.21 µM (inactive) | 4.43 µM (inactive) | 1.76 µM (inactive) | 0.348 µM (active) | 2.07 µM (inactive) | 17.5 µM (inactive) | 3.58 µM (inactive) | 28.2 µM (inactive) | 17.4 µM (inactive) | 15.2 µM (inactive) | 7.55 µM (inactive) | 20.3 µM (inactive) | 5.22 | 17.3 µM (inactive) | 21.2 µM (inactive) | – |
| CC(=O)Nc1ccc(NCC(=O)Nn2cnc3ccc(S(=O)(=O)Nc4ccc(NC(C)=O)cc4)cc3c2=O)cc1 | > 100 µM (inactive) | > 100 µM (inactive) | > 100 µM (inactive) | > 100 µM (inactive) | > 100 µM (inactive) | > 100 µM (inactive) | > 100 µM (inactive) | > 100 µM (inactive) | – | > 100 µM (inactive) | > 100 µM (inactive) | > 100 µM (inactive) | > 100 µM (inactive) | > 100 µM (inactive) | > 100 µM (inactive) | > 100 µM (inactive) | > 100 | > 100 µM (inactive) | > 100 µM (inactive) | – |
| COc1cc(C(=O)N(C(=O)N2CCCCC2)c2ccccc2)cc(OC)c1OC | > 100 µM (inactive) | > 100 µM (inactive) | > 100 µM (inactive) | > 100 µM (inactive) | – | > 100 µM (inactive) | > 100 µM (inactive) | > 100 µM (inactive) | – | > 100 µM (inactive) | – | – | > 100 µM (inactive) | – | > 100 µM (inactive) | > 100 µM (inactive) | > 100 | > 100 µM (inactive) | > 100 µM (inactive) | > 100 µM (inactive) |
| Clc1cc(N/N=C(/c2ccccc2)c2ncccn2)ncn1 | 19.3 µM (inactive) | 48.3 µM (inactive) | 21.7 µM (inactive) | 32.7 µM (inactive) | – | 7.26 µM (inactive) | 7.18 µM (inactive) | 7.96 µM (inactive) | 19.8 µM (inactive) | 32.7 µM (inactive) | – | 24.5 µM (inactive) | 21.9 µM (inactive) | 34 µM (inactive) | 16.5 µM (inactive) | 17.5 µM (inactive) | 17.9 | 38.5 µM (inactive) | 56.4 µM (inactive) | – |

Source: ChEMBL document CHEMBL1201862, “PubChem BioAssay data set” (2004)
